Test results published in patent publication US7238362B2, “Dithianon-based fungicidal mixtures” (BASF Aktiengesellschaft, priority 2002, dated 2007).

Test system: Alternaria solani
Assay: Activity against early blight of tomato caused by Alternaria solani (protective spray, potted tomato plants)
Format: in vivo
Conditions: individual active compound, tomato leaves, evaluated after 5 days
Experimental: The active compounds were prepared separately as a stock solution comprising 0.25% by weight of active compound in acetone or DMSO. 1% by weight of the emulsifier Uniperol® EL (wetting agent having emulsifying and dispersing action based on ethoxylated alkylphenols) was added to this solution, and the mixture was diluted with water to the desired concentration.
Leaves of potted plants of the cultivar “Groβe Fleischtomate St. Pierre” were sprayed to runoff point with an aqueous suspension having the concentration of active compounds stated below. The next day, the leaves were infected with an aqueous […] suspension of Alternaria solani in 2% biomalt solution having a density of 0.17×10^6 spores/ml. The plants were then placed in a water-vapor-saturated chamber at temperatures of between 20 and 22 C. After 5 days, the infection on the leaves of the untreated, but infected control plants had developed to such an extent that the infection could be determined visually in %.
Evaluation was carried out by determining the infected leaf area in per cent. These percentages were converted into efficacies.
The efficacy (E) is calculated as follows using Abbot's formula: E=(1−α/β)·100 • α corresponds to the fungal infection of the treated plants in % and • β corresponds to the fungal infection of the untreated (control) plants in %
An efficacy of 0 means that the infection level of the treated plants corresponds to that of the untreated control plants; an efficacy of 100 means that the treated plants were not infected. […]

SMILES | Efficacy in % of the untreated control (8 ppm in the spray liquor) [%] | Efficacy in % of the untreated control (16 ppm in the spray liquor) [%] | Efficacy in % of the untreated control (31 ppm in the spray liquor) [%] | Efficacy in % of the untreated control (63 ppm in the spray liquor) [%]
O=C(Nc1ccccc1-c1ccc(Cl)cc1)c1cccnc1Cl [II-1, boscalid] | 63 | 76 | 82 | 88
N#Cc1sc2c(=O)c3ccccc3c(=O)c=2sc1C#N [I, dithianon] | 0 | 0 | 27 | 63
O=C(Nc1ccccc1-c1ccc(F)cc1)c1cccnc1Cl [II-2] | 27 | 39 | 27 | 88
